From patent US12291508B2, “Hydrazide containing nuclear transport modulators and uses thereof” (Karyopharm Therapeutics Inc., priority 2011, dated 2025)
Structures can show the parent of a compound that is named as a salt.

Assays:
DU4475 luminal BC cells = test: Apoptosis marker immunoblot, DU4475; type: cell-based; details: DU4475, 0 to 10 μM, 24 hours
Procedure: MDA-MB-468 TNBC, DU4475 and HS578T TNBC cells were exposed to concentrations of Compound 1-3 ranging from 0 to 10 μM for 24 hours. After 24 hours, whole protein cell extracts were run on immunoblots and were exposed to antibodies against the proteins indicated in FIGS. 2A-2C.

HS578T = test: Cell proliferation assay, HS578T; type: cell-based; details: Homo sapiens, Hs-578T, type BaB, 72 h
Procedure: (§1) The cells were seeded at 5×10^3 to 1.5×10^4 cells (depending on cell type) in each well of a 96-well plate in 100 μL of fresh culture medium and adherent cells were allowed to attach overnight. The stock solutions of the compounds were diluted in cell culture medium to obtain eight concentrations of each drug, ranging from 1 nM to 30 μM and DMSO at less than 1% v/v was used as a negative control. The resulting drug solutions were transferred onto the cells. After 72 h of treatment, 20 μl of CellTiter 96® AQueous reagent was added into each well of the 96-well assay plates and the plate was incubated at 37° C. for 1-4 hours in a humidified, 5% CO2 atmosphere. Then the absorbance of each well was recorded at 490 nm using a 96-well plate reader. In most cases, the assay was performed in triplicate and the results were presented as half maximal inhibitory concentration (IC50).

BT-20 = test: Cell proliferation assay, BT-20; type: cell-based; details: Homo sapiens; BT-20, type BaA, 72 h
Procedure: as §1

MDA-MB-231 = test: Cell proliferation assay, MDA-MB-231; type: cell-based; details: Homo sapiens; MDA-MB-231, type BaB, 72 h
Procedure: as §1

MDA-MB-231 cells = test: Long-term growth assay, MDA-MB-231; type: cell-based; details: MDA-MB-231, 1 μM, 10 days, crystal violet
Text: At the end of the assay, media was removed from the cells and the remaining cells were stained with crystal violet.

[1] = test system: PMA-induced male BALB/c psoriatic mice; type: in vivo; details: 10 mg/kg oral, M-W-F
Procedure: BALB/c mice were housed in individually ventilated cages in a controlled environment (temperature 22±1° C., humidity 70±5%, and 12 h light/12 h dark cycle) in the animal facility. The mice had access to commercially available feed pellets and UV-treated potable water ad libitum. 4 mice were housed per individually ventilated cage. Each animal in the cage was identified by a tail. 8 mice per group mice were randomized into different treatment groups according to body weight. Following randomization the mean body weight for all groups was equivalent. Study design was Group 1: Naïve, 1% DMSO vehicle (10-30 ul, topical once daily), Group 2: PMA, 1% DMSO vehicle (10-30 ul, topical once daily), Group 3: PMA, 1-4 10 mg/kg in PVP/Pluronics (oral, M-W-F; Day 1-Day 3-Day 5-Day 7), Group 4: PMA, 0.1% betamethasone—25 mg (reference standard) (topical once daily)
4 ug Phorbol 12-myristate 13-acetate (PMA) in 20 uL of acetone was applied every day to mouse ears. Starting from Day 2, PMA-induction of dermal inflammation/psoriasis manifested with increases in clinical disease activity index associated with increased thickness of ear, scaling of ear-skin, and folding of ear-skin. The following parameters were evaluated: (i) the thickness of the ear, (ii) scaling on the skin of ear. This will be based on a scoring index—0, no scaling; 1, mild scaling; 2, moderate scaling; 3, severe scaling. […]

[2] = target: T1, CRM1-mediated nuclear export (Homo sapiens, UniProt O14980); test: RevGFP assay, inhibition of nuclear export; type: cell-based; details: U2OS-RevGFP cells, about 1 hr incubation; read-out: Rev Export
T1 construct: endogenous in cells; host or cells: U2OS-RevGFP cells
T1 sequence (O14980 whole entry): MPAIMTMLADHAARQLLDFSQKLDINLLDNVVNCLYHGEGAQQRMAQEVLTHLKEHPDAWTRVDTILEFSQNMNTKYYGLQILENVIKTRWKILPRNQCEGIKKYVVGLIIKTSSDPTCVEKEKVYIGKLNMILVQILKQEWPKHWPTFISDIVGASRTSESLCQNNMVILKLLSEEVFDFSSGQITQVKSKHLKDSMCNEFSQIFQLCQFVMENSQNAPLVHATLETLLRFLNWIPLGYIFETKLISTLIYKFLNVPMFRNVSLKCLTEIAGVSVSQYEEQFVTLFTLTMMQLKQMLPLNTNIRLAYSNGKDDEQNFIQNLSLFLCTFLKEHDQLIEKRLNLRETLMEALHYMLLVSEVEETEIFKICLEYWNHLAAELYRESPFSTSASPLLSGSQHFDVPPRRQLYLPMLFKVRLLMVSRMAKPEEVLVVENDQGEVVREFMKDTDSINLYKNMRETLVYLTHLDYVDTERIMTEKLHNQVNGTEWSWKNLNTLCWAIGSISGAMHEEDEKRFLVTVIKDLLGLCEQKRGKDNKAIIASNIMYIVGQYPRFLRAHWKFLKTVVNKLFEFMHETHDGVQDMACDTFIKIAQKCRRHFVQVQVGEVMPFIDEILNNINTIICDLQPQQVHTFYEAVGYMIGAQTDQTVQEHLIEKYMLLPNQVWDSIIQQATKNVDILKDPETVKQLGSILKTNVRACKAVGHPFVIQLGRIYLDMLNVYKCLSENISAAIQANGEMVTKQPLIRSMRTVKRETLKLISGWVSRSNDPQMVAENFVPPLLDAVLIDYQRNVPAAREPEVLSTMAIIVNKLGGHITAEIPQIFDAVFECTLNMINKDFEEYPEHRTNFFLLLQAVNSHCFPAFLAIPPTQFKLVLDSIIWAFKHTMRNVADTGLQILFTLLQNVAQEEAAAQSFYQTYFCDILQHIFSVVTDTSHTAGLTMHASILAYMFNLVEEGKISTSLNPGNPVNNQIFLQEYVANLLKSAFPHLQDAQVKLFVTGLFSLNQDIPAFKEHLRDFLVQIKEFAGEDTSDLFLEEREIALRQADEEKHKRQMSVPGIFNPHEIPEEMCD
Procedure: The ability of exemplary compounds of the invention to inhibit CRM1-mediated nuclear export was assessed in a RevGFP assay. Rev is a protein from human immunodeficiency virus type 1 (HIV-1) and contains a nuclear export signal (NES) in its C-terminal domain and a nuclear localization signal (NLS) in its N-terminal domain. Nuclear export of Rev protein is dependent on the classical NES/CRM1 pathway (Neville et al. 1997).
In this assay, U2OS-RevGFP cells were seeded onto clear-bottomed, black, 384-well plates the day before the experiment. Compounds were serially diluted 1:2 in DMEM, starting from 40 μM in a separate, 384-well plate, and then transferred onto the cells. The cells were incubated with compound for about 1 hr before fixation with 3.7% formaldehyde and nuclei staining with Hoechst 33258. The amount of GFP in cell nuclei was measured and the IC50 of each compound was determined (Kau et al. 2003).

[3] = test system: antibody-induced male BALB/c arthritic mice; test: Monoclonal-antibody induced arthritis (CAIA); type: in vivo; details: 4, 7.5, 15 mg/kg PO, Day 4, 6, 8, 10
Procedure: The health status of the animals was examined on arrival. Only animals in good health were acclimatized to laboratory conditions and were used in the study. Animals were provided ad libitum a commercial rodent diet and free access to drinking water, supplied to each cage via polyethylene bottles with stainless steel sipper tubes. Automatically controlled environmental conditions were set to maintain temperature at 20-24° C. with relative humidity (RH) of 30-70%, a 12:12 hour light:dark cycle and 10-30 air changes/hr in the study room Temperature, RH and light cycle were monitored daily by the control computer. Animals were given a unique animal identification number and on Day 0 of the study each animal received a tail vein injection of antibody cocktail (200 uL of 10 mg/mL). The antibody cocktail was supplied by MD Biosciences (Catalog #: CIA-MAB-50). On day 3, post the single mAb administration, all animals were subjected to LPS (200 uL of 0.5 mg/mL) administration by a single intraperitoneal (IP) injection. […]
Animals found in a moribund condition, animals with broken skin on an arthritic paw, or with a greater than a 20% decrease in body weight and animals showing severe pain and enduring signs of severe distress were humanely euthanized. Severe pain or distress was assessed on a case by case basis by experienced animal technicians. […]

O=C(/C=C\n1cnc(-c2cc(C(F)(F)F)cc(C(F)(F)F)c2)n1)NNc1cnccn1 [Compound I-3, (Z)-3-(3-(3,5-bis(trifluoromethyl)phenyl)-1H-1,2,4-triazol-1-yl)-N′-(pyrazin-2-yl)acrylohydrazide]
apoptosis (PARP, caspase 3, cleaved PARP, cleaved caspase 3) (DU4475 luminal BC cells): induces apoptosis
IC50 (HS578T): 1500 nM
IC50 (BT-20): 1500 nM
IC50 (MDA-MB-231): 10 nM
long-term growth (MDA-MB-231 cells): inhibited the long-term growth

O=C(/C=C\n1cnc(-c2cc(C(F)(F)F)cc(C(F)(F)F)c2)n1)NNc1ccccn1 [Compound I-4, (Z)-3-(3-(3,5-bis(trifluoromethyl)phenyl)-1H-1,2,4-triazol-1-yl)-N′-(pyridin-2-yl)acrylohydrazide hydrochloride]
efficacy relative to positive control betamethasone [1]: comparable to positive control betamethasone
mean ear thickness ([1]; compared to vehicle): reduced mean ear thickness in a statistically significant manner
IC50 [2]: ≤ 1000 nM
mean body weight (rate of weight gain) ([3]; compared to vehicle or dexamethasone): increased the rate of weight gain
mean total paw clinical arthritic score ([3]; compared with vehicle): significantly decreased the total score
